From ChEMBL document CHEMBL1212908, “Flavonoids in the poisonous plant Oxytropis falcata” (J Nat Prod, 2010)

How the values were obtained:
[1] = test system: Radical scavenging activity; test: Antioxidant activity assessed as DPPH free radical scavenging activity after 30 mins; assay type: functional
[2] = test system: HL-60; test: Cytotoxicity against human HL60 cells by MTT assay; assay type: functional, cell-based

COc1c(O)cc2c(c1OC)O[C@H]1c3ccc(O)cc3OC[C@@H]21
IC20 [1]: 3.8 µM | IC50 [2]: > 50 µM

COc1ccc([C@@H]2COc3cc(O)c(C(c4ccc(O)cc4O)C(O)Cc4ccc(O)cc4)cc3C2)c(O)c1OC (some centres not stated) [OXYTROPISOFLAVAN A]
IC20 [1]: > 50 µM | IC50 [2]: > 50 µM

COc1ccc([C@@H]2COC3=CC(=O)CC[C@]3(O)C2)c(O)c1OC [OXYTROPISOFLAVAN B]
IC20 [1]: > 50 µM | IC50 [2]: > 50 µM

VITAMIN E
IC20 [1]: 7.6 µM
